According to publication PMC11942486, “The Impact of a Quinone Scaffold on Thermo-TRPs Modulation by Dimethylheptyl Phytocannabinoids” (International Journal of Molecular Sciences, 2025):
Read-outs that look alike come from different tables or passages of the source.

Columns and labels:
human TRPV1 [1] = target: T1, human TRPV1 (Homo sapiens, UniProt Q8NER1); parameters: method as in PMID 34440274
T1 construct: expressed in transfected cells

rat TRPV2 [2] = target: T2, rat TRPV2 (Rattus norvegicus, UniProt Q9WUD2); parameters: method as in PMID 34440274; conditions: cited from earlier work; for TRPV2 Efficacy (% Ionomycin 4 μM): agonist effect as % of ionomycin 4 μM
T2 construct: expressed in transfected cells
T2 sequence (Q9WUD2 1-761): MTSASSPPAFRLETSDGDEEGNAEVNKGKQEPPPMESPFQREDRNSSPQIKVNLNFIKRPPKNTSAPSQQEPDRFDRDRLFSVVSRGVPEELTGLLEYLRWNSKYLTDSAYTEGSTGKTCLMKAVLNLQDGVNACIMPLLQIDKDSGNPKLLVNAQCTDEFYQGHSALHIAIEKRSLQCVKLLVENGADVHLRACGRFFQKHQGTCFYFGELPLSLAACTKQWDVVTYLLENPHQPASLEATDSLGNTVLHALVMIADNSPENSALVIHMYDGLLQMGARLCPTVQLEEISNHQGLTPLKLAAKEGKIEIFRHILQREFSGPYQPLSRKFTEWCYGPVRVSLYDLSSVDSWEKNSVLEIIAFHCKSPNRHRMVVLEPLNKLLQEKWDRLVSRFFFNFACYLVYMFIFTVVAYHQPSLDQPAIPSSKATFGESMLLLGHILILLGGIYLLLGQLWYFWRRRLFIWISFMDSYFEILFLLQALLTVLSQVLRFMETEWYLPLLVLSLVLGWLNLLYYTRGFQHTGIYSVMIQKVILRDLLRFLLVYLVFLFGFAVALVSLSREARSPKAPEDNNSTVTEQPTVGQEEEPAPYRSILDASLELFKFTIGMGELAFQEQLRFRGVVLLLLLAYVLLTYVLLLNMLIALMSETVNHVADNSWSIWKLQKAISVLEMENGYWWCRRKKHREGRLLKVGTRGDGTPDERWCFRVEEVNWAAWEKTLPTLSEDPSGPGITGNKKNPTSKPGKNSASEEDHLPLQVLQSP

rat TRPV3 [3] = target: T3, rat TRPV3 (Rattus norvegicus, UniProt Q4QYD9); parameters: method as in PMID 34440274
T3 construct: expressed in transfected cells
T3 sequence (Q4QYD9 1-791): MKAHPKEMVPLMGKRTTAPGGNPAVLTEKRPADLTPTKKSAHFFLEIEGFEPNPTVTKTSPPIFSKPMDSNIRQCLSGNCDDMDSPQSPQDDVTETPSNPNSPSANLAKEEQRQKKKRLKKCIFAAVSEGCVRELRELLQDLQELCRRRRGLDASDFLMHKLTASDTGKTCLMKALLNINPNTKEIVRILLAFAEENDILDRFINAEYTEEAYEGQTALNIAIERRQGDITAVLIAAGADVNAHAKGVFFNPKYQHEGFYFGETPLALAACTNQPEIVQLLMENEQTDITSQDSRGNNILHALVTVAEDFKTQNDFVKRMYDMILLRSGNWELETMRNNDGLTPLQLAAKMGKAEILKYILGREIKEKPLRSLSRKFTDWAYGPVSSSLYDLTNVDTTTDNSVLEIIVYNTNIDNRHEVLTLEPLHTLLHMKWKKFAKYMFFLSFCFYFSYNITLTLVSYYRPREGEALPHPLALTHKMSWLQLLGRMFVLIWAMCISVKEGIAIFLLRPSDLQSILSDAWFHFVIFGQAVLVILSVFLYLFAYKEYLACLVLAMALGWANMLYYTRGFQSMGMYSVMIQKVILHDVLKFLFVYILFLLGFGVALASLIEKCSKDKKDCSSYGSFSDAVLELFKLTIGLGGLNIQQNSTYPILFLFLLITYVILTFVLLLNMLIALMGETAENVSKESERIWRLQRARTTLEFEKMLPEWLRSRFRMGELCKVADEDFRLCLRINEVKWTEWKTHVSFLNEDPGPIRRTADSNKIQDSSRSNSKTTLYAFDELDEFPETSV

rat TRPA1 [4] = target: T4, rat TRPA1 (Rattus norvegicus, UniProt Q6RI86); parameters: method as in PMID 34440274; conditions: cited from earlier work; for TRPA1 Efficacy (% AITC 100 μM): agonist effect as % of AITC 100 μM, HEK-293 rat TRPA1
T4 construct: expressed in transfected cells
T4 sequence (Q6RI86 whole entry): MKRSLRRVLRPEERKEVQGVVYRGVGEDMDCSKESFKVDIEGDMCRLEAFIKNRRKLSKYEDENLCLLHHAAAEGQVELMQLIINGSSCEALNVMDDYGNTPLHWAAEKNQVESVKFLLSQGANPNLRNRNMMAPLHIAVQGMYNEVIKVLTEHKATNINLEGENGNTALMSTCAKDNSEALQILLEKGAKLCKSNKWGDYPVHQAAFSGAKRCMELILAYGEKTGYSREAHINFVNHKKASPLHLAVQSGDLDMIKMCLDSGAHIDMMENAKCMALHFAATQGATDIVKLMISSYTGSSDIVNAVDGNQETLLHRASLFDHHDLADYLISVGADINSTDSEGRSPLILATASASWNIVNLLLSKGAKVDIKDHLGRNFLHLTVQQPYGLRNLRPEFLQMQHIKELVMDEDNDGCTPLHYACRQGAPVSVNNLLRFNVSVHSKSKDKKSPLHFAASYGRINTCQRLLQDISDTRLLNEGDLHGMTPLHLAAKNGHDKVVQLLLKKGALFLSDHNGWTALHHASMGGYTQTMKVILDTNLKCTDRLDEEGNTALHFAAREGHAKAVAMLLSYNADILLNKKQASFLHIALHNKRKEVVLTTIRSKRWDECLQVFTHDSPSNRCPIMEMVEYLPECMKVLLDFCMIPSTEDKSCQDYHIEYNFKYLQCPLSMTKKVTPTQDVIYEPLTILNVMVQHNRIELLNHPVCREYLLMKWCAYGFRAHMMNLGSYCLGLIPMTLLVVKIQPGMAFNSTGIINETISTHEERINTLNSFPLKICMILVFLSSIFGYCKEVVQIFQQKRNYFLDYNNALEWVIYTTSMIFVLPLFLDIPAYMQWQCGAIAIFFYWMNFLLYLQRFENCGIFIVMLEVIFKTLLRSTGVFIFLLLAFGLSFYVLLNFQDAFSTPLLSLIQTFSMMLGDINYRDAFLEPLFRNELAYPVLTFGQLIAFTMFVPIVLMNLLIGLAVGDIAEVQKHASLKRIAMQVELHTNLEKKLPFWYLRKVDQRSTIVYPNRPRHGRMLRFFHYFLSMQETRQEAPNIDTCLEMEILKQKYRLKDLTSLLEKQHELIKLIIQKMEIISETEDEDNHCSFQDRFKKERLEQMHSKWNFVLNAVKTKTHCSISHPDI

rat TRPV4 [5] = target: T5, rat TRPV4 (Rattus norvegicus, UniProt Q9ERZ8); parameters: method as in PMID 34440274
T5 construct: expressed in transfected cells
T5 sequence (Q9ERZ8 whole entry): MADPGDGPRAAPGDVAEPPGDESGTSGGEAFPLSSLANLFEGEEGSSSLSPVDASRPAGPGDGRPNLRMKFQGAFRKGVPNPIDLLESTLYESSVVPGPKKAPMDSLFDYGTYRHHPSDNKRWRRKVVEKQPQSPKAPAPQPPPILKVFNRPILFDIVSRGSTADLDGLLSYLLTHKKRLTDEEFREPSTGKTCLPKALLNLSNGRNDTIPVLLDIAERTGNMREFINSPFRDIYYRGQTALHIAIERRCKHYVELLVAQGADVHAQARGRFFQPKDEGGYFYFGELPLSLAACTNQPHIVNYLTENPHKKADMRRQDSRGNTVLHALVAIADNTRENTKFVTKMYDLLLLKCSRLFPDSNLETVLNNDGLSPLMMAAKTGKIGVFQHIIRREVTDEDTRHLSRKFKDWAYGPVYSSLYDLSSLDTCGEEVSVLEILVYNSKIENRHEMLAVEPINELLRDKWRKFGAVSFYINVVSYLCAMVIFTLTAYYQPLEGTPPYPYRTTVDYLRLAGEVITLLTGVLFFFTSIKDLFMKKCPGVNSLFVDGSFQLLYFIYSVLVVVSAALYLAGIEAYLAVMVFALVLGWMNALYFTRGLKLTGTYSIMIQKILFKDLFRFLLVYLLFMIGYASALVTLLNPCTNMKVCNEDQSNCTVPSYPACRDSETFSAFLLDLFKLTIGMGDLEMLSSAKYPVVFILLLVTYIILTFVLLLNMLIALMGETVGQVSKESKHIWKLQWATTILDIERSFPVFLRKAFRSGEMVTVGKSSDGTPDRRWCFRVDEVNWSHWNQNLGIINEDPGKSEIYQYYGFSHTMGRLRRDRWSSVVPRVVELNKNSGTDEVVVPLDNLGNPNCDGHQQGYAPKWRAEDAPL

rat TRPM8 [6] = target: T6, rat TRPM8 (Rattus norvegicus, UniProt Q8R455); parameters: method as in PMID 34440274; conditions: vs Icilin 0.25 μM; 22 °C; cited from earlier work
T6 construct: expressed in transfected cells
T6 sequence (Q8R455 whole entry): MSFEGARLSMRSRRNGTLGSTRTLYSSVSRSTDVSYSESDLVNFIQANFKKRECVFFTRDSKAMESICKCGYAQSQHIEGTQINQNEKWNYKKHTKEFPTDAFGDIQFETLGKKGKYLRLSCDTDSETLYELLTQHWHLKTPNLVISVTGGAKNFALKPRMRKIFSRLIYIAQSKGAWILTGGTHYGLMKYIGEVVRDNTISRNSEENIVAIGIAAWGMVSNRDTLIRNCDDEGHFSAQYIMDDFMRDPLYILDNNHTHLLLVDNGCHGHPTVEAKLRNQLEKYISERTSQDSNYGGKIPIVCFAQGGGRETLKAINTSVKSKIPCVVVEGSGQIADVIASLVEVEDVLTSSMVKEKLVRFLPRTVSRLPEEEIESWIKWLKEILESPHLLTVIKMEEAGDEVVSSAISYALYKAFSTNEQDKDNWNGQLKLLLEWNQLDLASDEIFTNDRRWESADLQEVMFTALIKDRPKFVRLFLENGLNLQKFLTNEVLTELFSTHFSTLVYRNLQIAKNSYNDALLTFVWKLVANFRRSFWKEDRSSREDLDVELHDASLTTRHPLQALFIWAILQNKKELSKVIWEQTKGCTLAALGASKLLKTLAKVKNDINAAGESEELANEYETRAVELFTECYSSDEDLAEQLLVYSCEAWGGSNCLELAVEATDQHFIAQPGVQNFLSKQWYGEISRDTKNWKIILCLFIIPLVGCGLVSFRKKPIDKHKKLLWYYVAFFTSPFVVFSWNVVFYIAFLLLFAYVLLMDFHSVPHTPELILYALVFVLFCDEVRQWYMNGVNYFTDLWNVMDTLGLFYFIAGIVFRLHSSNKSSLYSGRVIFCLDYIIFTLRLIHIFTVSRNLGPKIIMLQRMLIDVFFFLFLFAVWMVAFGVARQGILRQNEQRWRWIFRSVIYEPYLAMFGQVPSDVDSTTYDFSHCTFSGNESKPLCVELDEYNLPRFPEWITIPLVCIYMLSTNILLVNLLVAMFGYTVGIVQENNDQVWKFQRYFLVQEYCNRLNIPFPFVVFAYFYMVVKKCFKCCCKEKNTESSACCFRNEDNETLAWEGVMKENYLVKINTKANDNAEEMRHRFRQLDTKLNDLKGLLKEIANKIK

human TRPV1 [7] = target: T1, human TRPV1; assay: Thermo-TRP assay: [Ca2+]i elevation (Fluo-4) in HEK-293 cells transfected with TRPV1; assay type: cell-based
Protocol: (§1) The compounds were tested on HEK-293 cells either stably transfected with rat TRPA1, TRPV2, TRPV3, TRPV4, TRPM8 or human TRPV1 or not-transfected, by performing a continuous monitoring of the intracellular calcium ([Ca^2+]i) elevation during the experiments, following the protocol already described. […] Cell fluorescence before and after the addition of various concentrations of tested compounds was measured, normalizing the effects against the response to ionomycin (IM, 4 μM). The effect on [Ca^2+]i in non-transfected HEK-293 cells were used as the baseline and subtracted from the values obtained from the transfected ones. The efficacy of the agonists was determined by normalizing their effect to the maximum Ca^2+ influx effect on [Ca^2+]i observed with application of 4μM ionomycin. The effects of TRPA1 agonists are expressed as a percentage of the effect obtained with 100 μM allyl isothiocyanate (AITC). In the TRPV3 assay, rat TRPV3-expressing HEK-293 cells were first sensitized with the structurally unrelated agonist 2-aminoethoxydiphenyl borate (100 μM). For the TRPM8, the experiments were carried out at 22 °C. The potency (EC50 values) is determined as the concentration required to produce half-maximal increases in [Ca^2+]i. […] A dose-response curve fitting (sigmoidal dose-response variable slope) and parameter estimation were performed with Graph-Pad Prism 8 (GraphPad Software Inc., San Diego, CA, USA). All determinations were performed at least in triplicate.

rat TRPV2 [8] = target: T2, rat TRPV2; assay: Thermo-TRP assay: [Ca2+]i elevation (Fluo-4) in HEK-293 cells transfected with TRPV2; assay type: cell-based
Protocol: (§2) The compounds were tested on HEK-293 cells either stably transfected with rat TRPA1, TRPV2, TRPV3, TRPV4, TRPM8 or human TRPV1 or not-transfected, by performing a continuous monitoring of the intracellular calcium ([Ca^2+]i) elevation during the experiments, following the protocol already described. On the day of the experiment, the cells were loaded for 1 h in the dark at room temperature with the fluorescent probe Fluo-4 AM (4 μM in DMSO containing 0.02% Pluronic F-127). The cells were rinsed, resuspended in Tyrode’s solution (145 mM NaCl, 2.5 mM KCl, 1.5 mM CaCl2, 1.2 mM MgCl2, 10 mM D-glucose, and 10 mM HEPES, pH 7.4), and transferred to a quartz cuvette of a spectrofluorimeter (PerkinElmer LS50B; λEX = 488 nm, λEM = 516 nm) equipped with a PTP-1 fluorescence Peltier system (PerkinElmer Life and Analytical Sciences, Waltham, MA, USA) under continuous stirring. Cell fluorescence before and after the addition of various concentrations of tested compounds was measured, normalizing the effects against the response to ionomycin (IM, 4 μM). The effect on [Ca^2+]i in non-transfected HEK-293 cells were used as the baseline and subtracted from the values obtained from the transfected ones. The efficacy of the agonists was determined by normalizing their effect to the maximum Ca^2+ influx effect on [Ca^2+]i observed with application of 4μM ionomycin. The effects of TRPA1 agonists are expressed as a percentage of the effect obtained with 100 μM allyl isothiocyanate (AITC). In the TRPV3 assay, rat TRPV3-expressing HEK-293 cells were first sensitized with the structurally unrelated agonist 2-aminoethoxydiphenyl borate (100 μM). For the TRPM8, the experiments were carried out at 22 °C. The potency (EC50 values) is determined as the concentration required to produce half-maximal increases in [Ca^2+]i. Antagonist/desensitizing behavior is evaluated against the agonist of the TRP analyzed by adding the compounds directly in the quartz cuvette 5 min before stimulation of cells with the agonist (allylisothiocyanate (100 μM) for TRPA1, capsaicin (0.1 μM) for TRPV1, cannabidiol (2 μM) for TRPV2, thymol (100 μM) for TRPV3, GSK1016790A (10 nM) for TRPV4, and icilin (0.25 μM) for TRPM8). The IC50 value is expressed as the concentration exerting a half-maximal inhibition of the agonist effect, taking as 100% the effect on [Ca^2+]i exerted by the agonist alone. A dose-response curve fitting (sigmoidal dose-response variable slope) and parameter estimation were performed with Graph-Pad Prism 8 (GraphPad Software Inc., San Diego, CA, USA). All determinations were performed at least in triplicate.

rat TRPA1 [9] = target: T4, rat TRPA1; assay: Thermo-TRP assay: [Ca2+]i elevation (Fluo-4) in HEK-293 cells transfected with TRPA1; assay type: cell-based
Protocol: as §1

rat TRPV4 [10] = target: T5, rat TRPV4; assay: Thermo-TRP assay: [Ca2+]i elevation (Fluo-4) in HEK-293 cells transfected with TRPV4; assay type: cell-based
Protocol: as §1

rat TRPV3 [11] = target: T3, rat TRPV3; assay: Thermo-TRP assay: [Ca2+]i elevation (Fluo-4) in HEK-293 cells transfected with TRPV3; assay type: cell-based
Protocol: as §2

rat TRPM8 [12] = target: T6, rat TRPM8; assay: Thermo-TRP assay: [Ca2+]i elevation (Fluo-4) in HEK-293 cells transfected with TRPM8; assay type: cell-based
Protocol: as §1

[13] = read-out: IC50 TRPV1; vs Capsaicin 0.1 μM; cited from earlier work
[14] = agonist effect as % of ionomycin 4 μM; cited from earlier work
[15] = read-out: IC50 TRPV4; vs GSK1016790A 10 nM; cited from earlier work
[16] = vs Capsaicin 0.1 μM; read-out: IC50 TRPV1; cited from earlier work
[17] = antagonist/desensitizing, vs Thymol 100 μM; cited from earlier work
[18] = vs GSK1016790A 10 nM; read-out: IC50 TRPV4; cited from earlier work

T1 sequence (Q8NER1 whole entry): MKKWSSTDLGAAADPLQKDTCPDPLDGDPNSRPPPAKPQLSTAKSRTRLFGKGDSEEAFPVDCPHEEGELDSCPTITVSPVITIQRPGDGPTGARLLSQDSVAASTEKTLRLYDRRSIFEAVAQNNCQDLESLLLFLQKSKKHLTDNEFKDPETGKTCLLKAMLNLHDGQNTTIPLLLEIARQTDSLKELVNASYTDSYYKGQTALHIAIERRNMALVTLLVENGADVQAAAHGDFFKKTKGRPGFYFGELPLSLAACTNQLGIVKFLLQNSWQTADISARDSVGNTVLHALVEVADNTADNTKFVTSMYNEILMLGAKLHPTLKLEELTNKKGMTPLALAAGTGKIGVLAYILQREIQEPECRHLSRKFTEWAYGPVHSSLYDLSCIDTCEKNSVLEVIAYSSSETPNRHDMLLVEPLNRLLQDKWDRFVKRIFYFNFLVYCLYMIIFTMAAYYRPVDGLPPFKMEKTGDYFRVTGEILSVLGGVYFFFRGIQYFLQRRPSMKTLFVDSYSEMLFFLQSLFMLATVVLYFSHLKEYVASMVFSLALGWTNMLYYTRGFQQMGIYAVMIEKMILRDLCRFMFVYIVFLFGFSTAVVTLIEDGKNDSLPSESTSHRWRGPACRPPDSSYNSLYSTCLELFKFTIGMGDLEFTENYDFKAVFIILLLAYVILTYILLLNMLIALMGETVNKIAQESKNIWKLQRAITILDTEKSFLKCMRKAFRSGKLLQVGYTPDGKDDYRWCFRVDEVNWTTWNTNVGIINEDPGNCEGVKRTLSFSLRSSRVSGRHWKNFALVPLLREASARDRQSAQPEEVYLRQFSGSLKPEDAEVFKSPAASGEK

| Structure (SMILES) | IC50 (human TRPV1 [1]; [13]) [µM] | TRPV2 Efficacy (% Ionomycin 4 μM) (rat TRPV2 [2]) [%] | TRPV3 Efficacy (% Ionomycin 4 μM) (rat TRPV3 [3]; [14]) [%] | TRPA1 Efficacy (% AITC 100 μM) (rat TRPA1 [4]) [%] | IC50 (rat TRPV4 [5]; [15]) [µM] | IC50 (human TRPV1 [1]; [16]) [µM] | IC50 (rat TRPV3 [3]; [17]) [µM] | IC50 (rat TRPV4 [5]; [18]) [µM] | further results |
| --- | --- | --- | --- | --- | --- | --- | --- | --- | --- |
| CCCCCCC(C)(C)c1cc(O)c2c(c1)OC(C)(C)c1ccc(C)cc1-2 [9a, DMH-CBN] | > 100 | 10.5 ± 0.02 | 20.9 ± 3.0 | 132.3 ± 7.9 | > 100 |  |  |  | IC50 (rat TRPV2 [2]; read-out: IC50 TRPV2, vs CBD 2 μM): > 50 µM; EC50 (rat TRPV2 [2]; read-out: TRPV2 Potency EC50, half-maximal increase in [Ca2+]i): 250 ± 30 nM; EC50 (rat TRPV3 [3]; read-out: TRPV3 Potency EC50; half-maximal increase in [Ca2+]i; cited from earlier work): 41.4 ± 21.6 µM |
| CCCCCCC(C)(C)c1cc(O)c(C/C=C(\C)CCC=C(C)C)c(O)c1 [7a, DMH-CBG] |  | 65.3 ± 0.7 | 64.6 ± 4.8 | 99.2 ± 4.5 |  | > 100 | > 30 |  |  |
| CCCCCCC(C)(C)c1cc(O)c2c(c1)OC(C)(CCC=C(C)C)C=C2 (centres unmarked) [8a, DMH-CBC] |  | 76.1 ± 0.6 | 41.6 ± 1.8 | 120.4 ± 2.8 |  | > 100 | > 50 | > 100 | IC50 (rat TRPM8 [6]): > 100 µM; EC50 (rat TRPV3 [3]; half-maximal increase in [Ca2+]i; read-out: TRPV3 Potency EC50; cited from earlier work): > 50 µM; IC50 (rat TRPA1 [4]; read-out: IC50 TRPA1, antagonist/desensitizing, vs AITC 100 μM): 370 nM |
| CCCCCCC(C)(C)c1cc(O)c2c(c1)OC(C)(C)[C@@H]1CC=C(C)C[C@@H]21 [6a, DMH-Δ⁸-THC] | > 100 | <10 | 53.8 ± 1.6 | 124.2 ± 4.0 | > 100 |  |  |  |  |
| C=C(C)[C@@H]1CCC(C)=C[C@H]1c1c(O)cc(C(C)(C)CCCCCC)cc1O [5a, DMH-CBD] |  | <10 | 15.8 ± 0.4 | 133.4 ± 5.3 |  | > 100 | > 30 | > 100 |  |
| CCCCCCC(C)(C)C1=CC2=C(C(=O)C1=O)c1cc(C)ccc1C(C)(C)O2 [9b] |  |  |  |  |  |  |  |  | IC50 (human TRPV1 [7]): > 100 µM; TRPV2 Efficacy (% Ionomycin 4 μM) (rat TRPV2 [8]; agonist effect as % of ionomycin 4 μM): 23.4 ± 3.7%; EC50 (rat TRPV2 [8]; half-maximal increase in [Ca2+]i, read-out: TRPV2 Potency EC50): 2000 ± 1600 nM; IC50 (rat TRPV2 [8]; vs CBD 2 μM): 5.2 ± 0.6 µM; IC50 (rat TRPA1 [9]; IC50 TRPA1, antagonist/desensitizing, added 5 min before AITC 100 μM): 15.1 ± 2.4 µM; TRPA1 Efficacy (% AITC 100 μM) (rat TRPA1 [9]; agonist effect as % of AITC 100 μM, HEK-293 rat TRPA1): 20.5%; IC50 (rat TRPV4 [10]): > 100 µM; TRPV3 Efficacy (% Ionomycin 4 μM) (rat TRPV3 [11]; agonist effect as % of ionomycin 4 μM, cells sensitized with 2-aminoethoxydiphenyl borate 100 μM): 32.5 ± 0.65%; IC50 (rat TRPV3 [11]; antagonist/desensitizing, vs Thymol 100 μM): 19.4 ± 3.5 µM; EC50 (rat TRPV3 [11]; half-maximal increase in [Ca2+]i, read-out: TRPV3 Potency EC50): 1150 ± 150 nM; IC50 (rat TRPM8 [12]): > 100 µM |
